Data on 13 compounds can be found in US6403607B1, “Sulfonamide derivatives and drugs containing the same as the active ingredient” (priority 1998, dated 2002).

The first assay deals with ethanol ulcer in the gland gastric region. As to the kind of experiment: Ethanol ulcer. It counts as in vivo. The following applies: rats fasted 24 hours, drug oral, 99.5% ethanol 1 ml/rat after one hour, size of ulcer one hour later; dose not given. As to the method:
Ethanol Ulcer Rats were fasted for 24 hours and orally administered with a drug. After one hour, 99.5% ethanol (1 ml/rat) was fed through oral administration. After one hour of ethanol administration, the abdomens of the rats were dissected and the size of ulcer in the gland gastric region was measured for each rat.
For `NCCN(c1cccnc1N1CCN(c2ccc(Cl)cc2)CC1)S(=O)(=O)c1ccc(Cl)cc1` [Example 136, 2-[4-(4-Chlorophenyl)-1-piperazino]-3-[N-(2-aminoethyl)-N-(4-chlorobenzenesulfonyl)]aminopyridine], the Suppression is recorded as 80%.

A further assay has as its system HCl-ethanol ulcer in the gland gastric region. As to the kind of experiment: HCl-ethanol ulcer. Type of assay: in vivo, Rats. As to conditions: rat, in vivo, po. As to the method: HCl-ethanol Ulcer Rats were fasted for 24 hours and orally administered with a drug. After one hour, 60% ethanol containing 0.15 N hydrochloric acid (1 ml/rat) was perorally administered to each rat. One hour after ethanol administration, the size of ulcer in the gland gastric region was measured for evaluation of anti-ulcer effects of the drug.
On to `CN(C)CCN(c1ccccc1NCCOc1ccc(Cl)cc1)S(=O)(=O)c1ccc(Br)cc1.Cl` [Example 44, N-[2-(Dimethylamino)ethyl]-N-(4-bromobenzenesulfonyl)-N′-[2-(4-chlorophenoxy)ethyl]-o-phenylenediamine.HCl], for which the Suppression stood at 87%.

Staying with this assay, now noted: rats fasted 24 hours, drug oral, 60% ethanol containing 0.15 N hydrochloric acid 1 ml/rat after one hour, size of ulcer one hour later; dose not given.
As to `Cc1ccc(S(=O)(=O)N(CCN(C)C)c2ccccc2NCCOc2ccc(Cl)cc2)cc1.Cl` [Example 36, N-[2-(Dimethylamino)ethyl]-N-(p-toluenesulfonyl)-N′-[2-(4-chlorophenoxy)ethyl]-o-phenylenediamine Hydrochloride], the Suppression was determined as 92%.
Same read-out and setting: next, `CN(C)CCN(c1ccccc1NCCOc1ccc(Cl)cc1)S(=O)(=O)c1cccc2ccccc12.Cl` [Example 38, N-[2-(Dimethylamino)ethyl]-N-(1-naphthalenesulfonyl)-N′-[2-(4-chlorophenoxy)ethyl]-o-phenylenediamine Hydrochloride]: 93%; `CN(C)CCN(c1ccccc1NCCOc1ccc(F)cc1)S(=O)(=O)c1ccc(Cl)cc1.Cl` [Example 48, N-[2-(Dimethylamino)ethyl]-N-(4-chlorobenzenesulfonyl)-N′-[2-(4-fluorophenoxy)ethyl]-o-phenylenediamine Hydrochloride]: 85%.
On the same count and under the same terms, as for `CN(C)CCN(c1ccccc1NCCOc1ccc(Cl)cc1)S(=O)(=O)c1cccc(Cl)c1.Cl` [Example 52, N-[2-(Dimethylamino)ethyl]-N-(3-chlorobenzenesulfonyl)-N′-[2-(4-chlorophenoxy)ethyl]-o-phenylenediamine Hydrochloride], the figure is 87%; as for `Cc1ccc(OCCNc2ccccc2N(CCN(C)C)S(=O)(=O)c2ccc(Cl)cc2)cc1.Cl` [Example 53, N-[2-(Dimethylamino)ethyl]-N-(4-chlorobenzenesulfonyl)-N′-[2-(4-methylphenoxy)ethyl]-o-phenylenediamine Hydrochloride], 92%; as for `CN(C)CCN(c1ccccc1NCCOc1ccc(Br)cc1)S(=O)(=O)c1ccc(Cl)cc1.Cl` [Example 54, N-[2-(Dimethylamino)ethyl]-N-(4-chlorobenzenesulfonyl)-N′-[2-(4-bromophenoxy)ethyl]-o-phenylenediamine Hydrochloride], 77%.
On the same count and under the same terms, as for `CN(C)CCN(c1cccc(NCCOc2ccc(Cl)cc2)c1)S(=O)(=O)c1ccc(Cl)cc1.Cl` [Example 55, N-[2-(Dimethylamino)ethyl]-N-(4-chlorobenzenesulfonyl)-N′-[2-(4-chlorophenoxy)ethyl]-m-phenylenediamine Hydrochloride], the figure is 88%.
`CN(C)CCN(c1ccc(NCCOc2ccc(Cl)cc2)cc1)S(=O)(=O)c1ccccc1Cl.Cl` [Example 56, N-[2-(Dimethylamino)ethyl]-N-(2-chlorobenzenesulfonyl)-N′-[2-(4-chlorophenoxy)ethyl]-p-phenylenediamine Hydrochloride]: the Suppression worked out at 88%.
On the same count and under the same terms, as for `CN(C)CCN(c1ccccc1N(C)CCOc1ccc(Cl)cc1)S(=O)(=O)c1ccc(Cl)cc1.Cl` [Example 69], the figure is 99%; as for `CN(C)CCN(c1ccccc1N(CCOc1ccc(Cl)cc1)Cc1ccccc1)S(=O)(=O)c1ccc(Cl)cc1.Cl` [Example 71, N-[2-(Dimethylamino)ethyl]-N-(4-chlorobenzenesulfonyl)-N′-benzyl-N′-[2-(4-chlorophenoxy)ethyl]-o-phenylenediamine Hydrochloride], 99%.
Turning to `CN(C)CCN(c1ccccc1N1CCCN(c2ccc(Cl)cc2)CC1)S(=O)(=O)c1ccc(Cl)cc1.Cl` [Example 135, 2-[4-(4-Chlorophenyl)-1-homopiperazino]-1-[N-[2-(dimethylamino)ethyl]-N-(4-chlorobenzenesulfonyl)]aminobenzene.HCl], the Suppression came to 89%.

In a further assay the test system is Helicobacter pylori. As to the kind of experiment: Anti-Helicobacter-pylori action (agar plate dilution MIC). It counts as cell-based. The following applies: clinically isolated 10 bacterial strains, agar plate dilution method. As to the method:
Anti-Helicobacter-pylori Action
Using clinically isolated 10 bacterial strains, the minimum inhibitory concentration (MIC) was measured according to the agar plate dilution method.
The MIC is the lowest concentration that inhibits growth of the organism. For the compound `NCCN(c1cccnc1N1CCN(c2ccc(Cl)cc2)CC1)S(=O)(=O)c1ccc(Cl)cc1` [Example 136, 2-[4-(4-Chlorophenyl)-1-piperazino]-3-[N-(2-aminoethyl)-N-(4-chlorobenzenesulfonyl)]aminopyridine], the MIC lay within 3.13 to 12.5 µg/mL.
